Key:
[1] = tested on: A549-ACE2; assay: phospholipidosis EC50; higher = less potent phospholipidosis inducer
[2] = tested on: A549-ACE2; assay: drug-induced phospholipidosis relative to tamoxifen; higher = more phospholipidosis
[3] = tested on: U2OS; assay: cell viability relative to DMSO; higher = less toxic; details: 72 h
[4] = tested on: Vero E6; assay: as above; details: 72 h
[5] = tested on: Calu-3; assay: as above; details: 72 h
[6] = tested on: Caco-2; assay: as above; details: 72 h
[7] = tested on: HepG2; assay: as above; details: 72 h
[8] = tested on: A549-ACE2 infected with SARS-CoV-2; assay: morphology score (similarity to uninfected cells); higher = more like uninfected cells; details: 24 h
[9] = tested on: A549-ACE2 infected with SARS-CoV-2; assay: SARS-CoV-2 infection rate relative to DMSO; higher = more infection; details: 24 h
[10] = tested on: A549-ACE2 infected with SARS-CoV-2; assay: cell count relative to DMSO; higher = less toxic; details: 24 h
[11] = tested on: U2OS; assay: drug sensitivity score (DSS) for viability; higher = more toxic; extreme values may be limits of the assay; details: 72 h
[12] = tested on: Vero E6; assay: as above; details: 72 h
[13] = tested on: Calu-3; assay: as above; details: 72 h
[14] = tested on: Caco-2; assay: as above; details: 72 h
[15] = tested on: HepG2; assay: as above; details: 72 h
[16] = tested on: U2OS; assay: relative viability EC50 (midpoint between 100% and the lowest measured viability); higher = less toxic; details: 72 h
[17] = tested on: Calu-3; assay: as above; details: 72 h
[18] = tested on: Caco-2; assay: as above; details: 72 h
[19] = tested on: HepG2; assay: as above; details: 72 h
[20] = tested on: Vero E6; assay: as above; details: 72 h

CCn1c2ccccc2c2cc(Nc3ccnc(NCCCN4CCOCC4)n3)ccc21 [EHop-016]
Details	SARS-CoV-2 infection rate [%]	cell count [%]	cell viability [%]	morphology score	phospholipidosis EC50 [µM]
[1], 24 h	–	–	–	–	0.895
[1], 48 h	–	–	–	–	1.39
[1], 72 h	–	–	–	–	3.13
[3], 1 nM	–	–	100	–	–
[3], 10 nM	–	–	94.1	–	–
[3], 100 nM	–	–	101	–	–
[3], 1000 nM	–	–	91	–	–
[3], 10000 nM	–	–	34.6	–	–
[4], 1 nM	–	–	102	–	–
[4], 10 nM	–	–	97.2	–	–
[4], 100 nM	–	–	88.9	–	–
[4], 1000 nM	–	–	94.3	–	–
[4], 10000 nM	–	–	64.3	–	–
[5], 1 nM	–	–	95	–	–
[5], 10 nM	–	–	98	–	–
[5], 100 nM	–	–	100	–	–
[5], 1000 nM	–	–	99	–	–
[5], 10000 nM	–	–	6.7	–	–
[6], 1 nM	–	–	91.4	–	–
[6], 10 nM	–	–	93.5	–	–
[6], 100 nM	–	–	97.4	–	–
[6], 1000 nM	–	–	85.5	–	–
[6], 10000 nM	–	–	31.2	–	–
[7], 1 nM	–	–	103	–	–
[7], 10 nM	–	–	104	–	–
[7], 100 nM	–	–	98.5	–	–
[7], 1000 nM	–	–	98	–	–
[7], 10000 nM	–	–	28.1	–	–
[8], 0.1 µM	–	–	–	-0.12	–
[8], 0.3 µM	–	–	–	-0.03	–
[8], 1 µM	–	–	–	0.46	–
[8], 3 µM	–	–	–	0.79	–
[9], 0.1 µM	98	–	–	–	–
[9], 0.3 µM	97	–	–	–	–
[9], 1 µM	70	–	–	–	–
[9], 3 µM	23	–	–	–	–
[10], 0.1 µM	–	93	–	–	–
[10], 0.3 µM	–	100	–	–	–
[10], 1 µM	–	103	–	–	–
[10], 3 µM	–	118	–	–	–

drug-induced phospholipidosis [%], [2]
Details	0.3 µM	0.833333 µM	3.33333 µM	6.66667 µM	10 µM	30 µM
24 h	3.51	16.7	47	47.4	52.6	11.5
48 h	4.02	8.22	56.9	63.9	72.1	40.9
72 h	3.76	2.65	48.2	69.6	81.3	–

Details	drug sensitivity score	relative viability EC50
[11]	5.1	–
[12]	2.6	–
[13]	5.3	–
[14]	6.1	–
[15]	4.2	–
[16]	–	2060 nM
[17]	–	3.09 µM
[18]	–	1690 nM
[19]	–	2960 nM

O=C(c1ccc(-c2ccc(Cl)cc2)o1)N(Cc1ccccn1)c1ccc(N2CCNCC2)cc1 [MK2-IN-1]
Details	SARS-CoV-2 infection rate [%]	cell count [%]	cell viability [%]	morphology score	phospholipidosis EC50 [µM]
[1], 24 h	–	–	–	–	3.59
[1], 48 h	–	–	–	–	4.69
[1], 72 h	–	–	–	–	4.85
[3], 1 nM	–	–	97.9	–	–
[3], 10 nM	–	–	103	–	–
[3], 100 nM	–	–	95.9	–	–
[3], 1000 nM	–	–	104	–	–
[3], 10000 nM	–	–	83.2	–	–
[4], 1 nM	–	–	96.5	–	–
[4], 10 nM	–	–	94	–	–
[4], 100 nM	–	–	98.1	–	–
[4], 1000 nM	–	–	95.7	–	–
[4], 10000 nM	–	–	67.6	–	–
[5], 1 nM	–	–	92.2	–	–
[5], 10 nM	–	–	112	–	–
[5], 100 nM	–	–	93.9	–	–
[5], 1000 nM	–	–	116	–	–
[5], 10000 nM	–	–	54.9	–	–
[6], 1 nM	–	–	104	–	–
[6], 10 nM	–	–	111	–	–
[6], 100 nM	–	–	100	–	–
[6], 1000 nM	–	–	131	–	–
[6], 10000 nM	–	–	52.9	–	–
[7], 1 nM	–	–	102	–	–
[7], 10 nM	–	–	109	–	–
[7], 100 nM	–	–	115	–	–
[7], 1000 nM	–	–	97.9	–	–
[7], 10000 nM	–	–	68.2	–	–
[8], 0.1 µM	–	–	–	0.14	–
[8], 0.3 µM	–	–	–	0.26	–
[8], 1 µM	–	–	–	0.34	–
[8], 3 µM	–	–	–	0.75	–
[9], 0.1 µM	97	–	–	–	–
[9], 0.3 µM	88	–	–	–	–
[9], 1 µM	77	–	–	–	–
[9], 3 µM	29	–	–	–	–
[10], 0.1 µM	–	100	–	–	–
[10], 0.3 µM	–	102	–	–	–
[10], 1 µM	–	107	–	–	–
[10], 3 µM	–	117	–	–	–

drug-induced phospholipidosis [%], [2]
Details	0.3 µM	0.833333 µM	3.33333 µM	6.66667 µM	10 µM	30 µM
24 h	3.45	9.1	31.8	109	102	96.8
48 h	6.99	4.08	23	127	127	153
72 h	5.37	-1.19	20.6	118	139	–

Details	drug sensitivity score	relative viability EC50 [nM]
[11]	0.2	–
[12]	2.2	–
[13]	1.7	–
[14]	1.5	–
[15]	1.7	–
[16]	–	> 10000

CC1(C)CC[C@]2(NC(=O)C(C)(F)F)CC[C@]3(C)[C@H](C(=O)C=C4[C@@]5(C)C=C(C#N)C(=O)C(C)(C)[C@@H]5CC[C@]43C)[C@@H]2C1 [Omaveloxolone (RTA-408)]
[2], 0.3 µM
Details	drug-induced phospholipidosis [%]
24 h	9.83
48 h	10.5
72 h	21.8

Details	SARS-CoV-2 infection rate, [9] [%]	cell count, [10] [%]	cell viability, [3] [%]	cell viability, [4] [%]	cell viability, [5] [%]	cell viability, [6] [%]	cell viability, [7] [%]	morphology score, [8]
1 nM	–	–	96.8	107	99.6	100	97.6	–
10 nM	–	–	102	108	118	102	91.6	–
100 nM	–	–	98.7	103	90.7	85.7	83.6	–
0.3 µM	111	97	–	–	–	–	–	-0.26
1000 nM	–	–	1.9	7.7	23.6	32.3	1.2	–
3 µM	0	1	–	–	–	–	–	0.09
10000 nM	–	–	-0.1	-0.1	1.6	5.4	-0.3	–

Details	drug sensitivity score	relative viability EC50
[11]	17.9	–
[12]	16.6	–
[13]	15.4	–
[14]	14.5	–
[15]	20.7	–
[16]	–	321 nM
[17]	–	0.453 µM
[18]	–	450 nM
[19]	–	192 nM
[20]	–	410 nM

COc1cc2ncnc(Sc3nnc(C)s3)c2cc1OC [SKLB1002]
drug-induced phospholipidosis [%], [2]
Details	0.3 µM	0.833333 µM	3.33333 µM	6.66667 µM	10 µM	30 µM
24 h	7.29	1.02	4.5	10.7	22.8	44.1
48 h	7.01	-1.13	-0.08	3.84	12.5	–
72 h	8.05	-2.71	-0.571	-0.945	0.143	–

Details	SARS-CoV-2 infection rate, [9] [%]	cell count, [10] [%]	cell viability, [3] [%]	cell viability, [4] [%]	cell viability, [5] [%]	cell viability, [6] [%]	cell viability, [7] [%]	morphology score, [8]
1 nM	–	–	99.1	96.2	103	101	104	–
10 nM	–	–	99.4	94.8	99.2	92	99.6	–
100 nM	–	–	102	92.7	96.3	97.7	105	–
0.3 µM	105	102	–	–	–	–	–	-0.11
1000 nM	–	–	102	98.4	92.1	94.4	105	–
3 µM	105	102	–	–	–	–	–	-0.15
10000 nM	–	–	88.3	87.8	107	73.7	59.1	–
10 µM	106	97	–	–	–	–	–	0.01
30 µM	79	85	–	–	–	–	–	0.25

Details	drug sensitivity score	relative viability EC50
[11]	0	–
[12]	0	–
[13]	0	–
[14]	1.9	–
[15]	1.7	–
[16]	–	> 10000 nM
[17]	–	> 10 µM
[20]	–	> 10000 nM

CCN(CC)CCCC(C)Nc1ccnc2cc(Cl)ccc12 (stereo unspecified) [chloroquine]
[8]
Details	morphology score
0.3 µM	0.17
3 µM	0.37
10 µM	0.63
30 µM	0.8

Details	drug sensitivity score
[11]	0
[13]	0
[15]	0.6

Reference: the supplement of paper PMC13380429
